Assay results: patent publication US9074014B2 (Ipsen Pharma S.A.S., priority 2008, dated 2015)
Where a SMILES comes first, the peptide text is derived from it. Where no end group is shown, it is not given here. [ ]: non-standard residue; d: D form. The star is where a group is joined. Tic = O=C(O)[C@@H]1Cc2ccccc2CN1; Pip = O=C(O)[C@@H]1CCCCN1; Ac6c = NC1(C(=O)O)CCCCC1; Nle = CCCC[C@H](N)C(=O)O; X1 = CCCN1C(=O)CC(*)C1=O; Ac5c = NC1(C(=O)O)CCCC1; Aib = CC(C)(N)C(=O)O

Tests used:
[1] = Rat plasma half-life assay; format: in vitro ADME; details: rat plasma, 37° C., LC-MS; read-out: Rat Plasma T½ (converted)
Protocol: (§1) B. Human and Rat Plasma Half-Life Assay
(§2) 50 μL was removed at various times, like at 0, 1, 2, 3, 4, 8, 24, 32, 48, 56, 72 hours, mixed with 5 μL formic acid and 150 μL acetonitrile in a microcentrifuge tube, vertexed, and centrifuged for 10 minutes at 10K rpm. The supernatant was transferred to an injection vial and analyzed by LC-MS. The LC-MS system consisted of an API4000 mass spectrometer with an ESI probe. Positive ion mode and full scan detection were used. HPLC separation was carried out on a Luna 3μ C8 (2), 2×30 mm column with a gradient from 90% A to 90% B in 10 minutes at a flow rate of 0.3 ml/min. Buffer A was 1% formic acid in water and buffer B was 1% formic acid acetonitrile.

[2] = Human plasma half-life assay; format: in vitro ADME; details: human plasma, 37° C., LC-MS; read-out: Human Plasma T½ (converted)
Protocol: as §1, §2

Row | Molecule | half-life at 0.1 mg/ml [1] | half-life at 0.1 mg/ml [2]
1 | CC[C@H](C)[C@H](NC(=O)[C@H](CCCCN)NC(=O)[C@H](CC(=O)O)NC(=O)C1(NC(=O)[C@H](C)NC(=O)[C@@H](NC(=O)C2(NC(=O)[C@H](Cc3ccc(O)cc3)NC(=O)[C@H](CC(=O)O)NC(=O)[C@H](CO)NC(=O)[C@@H](NC(=O)[C@H](Cc3ccccc3)NC(=O)[C@@H](NC(=O)CNC(=O)[C@@H]3CC(O)CN3C(=O)[C@H](C)NC(=O)[C@@H](N)Cc3ccc(O)cc3)[C@@H](C)O)[C@@H](C)CC)CCCC2)[C@@H](C)CC)CCCCC1)C(=O)N[C@@H](Cc1c[nH]cn1)C(=O)N[C@@H](CCC(N)=O)C(=O)N[C@@H](CCC(N)=O)C(=O)N[C@@H](CC(=O)O)C(=O)N[C@@H](Cc1ccccc1)C(=O)N[C@H](C(=O)N[C@@H](CC(N)=O)C(=O)N[C@@H](Cc1c[nH]c2ccccc12)C(=O)N[C@@H](CC(C)C)C(=O)N[C@@H](CC(C)C)C(=O)N[C@@H](C)C(=O)N[C@@H](CCC(N)=O)C(=O)N[C@@H](CCCCN)C(=O)NCC(=O)N[C@@H](CCCCN)C(=O)N[C@@H](CCCCN)C(=O)N[C@@H](CC(N)=O)C(=O)N[C@@H](CC(=O)O)C(=O)N[C@@H](Cc1c[nH]c2ccccc12)C(=O)N[C@@H](CCCCN)C(=O)N[C@@H](Cc1c[nH]cn1)C(=O)N[C@@H](CC(N)=O)C(=O)N[C@H](C(=O)N[C@H](C(=O)N[C@@H](CCC(N)=O)C(=O)O)[C@@H](C)O)[C@@H](C)CC)C(C)C (stereo partly drawn) [Example 88, (4Hyp^3, A5c^11, A6c^14)hGIP(1-42)-OH] | 4.4 h | > 48 h
2 | Y[Aib]EGTFIS[Aib]YSIAMDKIHQQDFVNWLLAQKGKKNDWKHNITQ-OH [Example 2, (Aib^2, 9)hGIP(1-42)-OH] | 5.6 h | 9.4 h
3 | CC[C@H](C)[C@H](NC(=O)[C@H](CO)NC(=O)[C@H](Cc1ccc(O)cc1)NC(=O)[C@H](CC(=O)O)NC(=O)[C@H](CO)NC(=O)C(C)(C)NC(=O)[C@H](Cc1ccccc1)NC(=O)[C@@H](NC(=O)CNC(=O)[C@H](CCC(=O)O)NC(=O)C(C)(C)NC(=O)[C@@H](N)Cc1ccc(O)cc1)[C@@H](C)O)C(=O)N[C@@H](C)C(=O)N[C@@H](CCSC)C(=O)N[C@@H](CC(=O)O)C(=O)N[C@@H](CCCCN)C(=O)N[C@H](C(=O)N[C@@H](Cc1c[nH]cn1)C(=O)N[C@@H](CCC(N)=O)C(=O)N[C@@H](CCC(N)=O)C(=O)N[C@@H](CC(=O)O)C(=O)N[C@@H](Cc1ccccc1)C(=O)N[C@H](C(=O)N[C@@H](CC(N)=O)C(=O)N[C@@H](Cc1c[nH]c2ccccc12)C(=O)N[C@@H](CC(C)C)C(=O)N[C@@H](CC(C)C)C(=O)N[C@@H](C)C(=O)N[C@@H](CCC(N)=O)C(=O)N[C@@H](CCCCN)C(N)=O)C(C)C)[C@@H](C)CC [Example 16, (Aib^2, 7)hGIP(1-30)-NH2] | > 48 h | 43.9 h
4 | YA[Pip]GTFISDYSI[Aib][Nle]DKIHQQDFVNWLLAQKGKKNDWKHNITQ-OH [Example 63, (hPro^3, Aib^13, Nle^14)hGIP(1-42)-OH] | 1.4 h | 14.2 h
5 | YGEGTFISDY[Ac5c]IAMDKIHQQDFVNWLLAQKGKKNDWKHNITQH-OH [Example 117, (Gly^2, A5c^11, His^43)hGIP(1-43)-OH] | 10.5 h | 25.2 h
6 | Y[Aib]EGTFISDY[Ac5c]IAMDKIHQQDFVNWLLAQKGKKNDWKHNITQ-OH [Example 53, (Aib^2, A5c^11)hGIP(1-42)-OH] | 51.7 h | 33.3 h
7 | Y[Aib]EGTF[Ac6c]SDYSIAMDKIHQQDFVNWLLAQKGKKNDC(X1)KHNITQ-OH [Example 81, [Aib^2, A6c^7, Cys(Psu)^36]hGIP(1-42)-OH] | 6.1 h | 8.2 h
8 | Y[Aib]EGTF[Ac6c]SDYSIA[Nle]DKIHQQDFVNWL[Ac6c]AQKGKKNDWKHNITQ-OH [Example 27, (Aib^2, A6c^7, 27, Nle^14)hGIP(1-42)-OH] | 9.3 h | > 48 h
9 | YA[Tic]GTFISDY[Ac5c]IAMDKIHQQDFVNWLLAQKGKKNDWKHNITQ-OH [Example 82, (Tic^3, A5c^11)hGIP(1-42)-OH] | 10.2 h | 9.7 h
10 | CC[C@H](C)[C@H](NC(=O)[C@H](CO)NC(=O)[C@H](Cc1ccc(O)cc1)NC(=O)[C@H](CC(=O)O)NC(=O)[C@H](CO)NC(=O)C1(NC(=O)[C@H](Cc2ccccc2)NC(=O)[C@@H](NC(=O)CNC(=O)[C@@H]2CCCN2C(=O)C(C)(C)NC(=O)[C@@H](N)Cc2ccc(O)cc2)[C@@H](C)O)CCCCC1)C(=O)N[C@@H](C)C(=O)N[C@@H](CCSC)C(=O)N[C@@H](CC(=O)O)C(=O)N[C@@H](CCCCN)C(=O)N[C@H](C(=O)N[C@@H](Cc1c[nH]cn1)C(=O)N[C@@H](CCC(N)=O)C(=O)N[C@@H](CCC(N)=O)C(=O)N[C@@H](CC(=O)O)C(=O)N[C@@H](Cc1ccccc1)C(=O)N[C@H](C(=O)N[C@@H](CC(N)=O)C(=O)N[C@@H](Cc1c[nH]c2ccccc12)C(=O)N[C@@H](CC(C)C)C(=O)N[C@@H](CC(C)C)C(=O)N[C@@H](C)C(=O)N[C@@H](CCC(N)=O)C(=O)N[C@@H](CCCCN)C(N)=O)C(C)C)[C@@H](C)CC [Example 109, (Aib^2, Pro^3, A6c^7)hGIP(1-30)-NH2] | 47.8 h | 27.2 h
11 | CCCC[C@H](NC(=O)C(C)(C)NC(=O)[C@@H](NC(=O)[C@H](CO)NC(=O)[C@H](Cc1ccc(O)cc1)NC(=O)[C@H](CC(=O)O)NC(=O)[C@H](CO)NC(=O)[C@@H](NC(=O)[C@H](Cc1ccccc1)NC(=O)[C@@H](NC(=O)CNC(=O)[C@@H]1CC(O)CN1C(=O)[C@H](C)NC(=O)[C@@H](N)Cc1ccc(O)cc1)[C@@H](C)O)[C@@H](C)CC)[C@@H](C)CC)C(=O)N[C@@H](CC(=O)O)C(=O)N[C@@H](CCCCN)C(=O)N[C@H](C(=O)N[C@@H](Cc1c[nH]cn1)C(=O)N[C@@H](CCC(N)=O)C(=O)N[C@@H](CCC(N)=O)C(=O)N[C@@H](CC(=O)O)C(=O)N[C@@H](Cc1ccccc1)C(=O)N[C@H](C(=O)N[C@@H](CC(N)=O)C(=O)N[C@@H](Cc1c[nH]c2ccccc12)C(=O)N[C@@H](CC(C)C)C(=O)N[C@@H](CC(C)C)C(=O)N[C@@H](C)C(=O)N[C@@H](CCC(N)=O)C(=O)N[C@@H](CCCCN)C(=O)NCC(=O)N[C@@H](CCCCN)C(=O)N[C@@H](CCCCN)C(=O)N[C@@H](CC(N)=O)C(=O)N[C@@H](CC(=O)O)C(=O)N[C@@H](Cc1c[nH]c2ccccc12)C(=O)N[C@@H](CCCCN)C(=O)N[C@@H](Cc1c[nH]cn1)C(=O)N[C@@H](CC(N)=O)C(=O)N[C@H](C(=O)N[C@H](C(=O)N[C@@H](CCC(N)=O)C(=O)O)[C@@H](C)O)[C@@H](C)CC)C(C)C)[C@@H](C)CC (stereo partly drawn) [Example 68, (4Hyp^3, Aib^13, Nle^14)hGIP(1-42)-OH] | 1.9 h | > 48 h
12 | CC[C@H](C)[C@H](NC(=O)[C@H](CO)NC(=O)[C@H](Cc1ccc(O)cc1)NC(=O)[C@H](CC(=O)O)NC(=O)[C@H](CO)NC(=O)C1(NC(=O)[C@H](Cc2ccccc2)NC(=O)[C@@H](NC(=O)CNC(=O)[C@H](CCC(=O)O)NC(=O)C(C)(C)NC(=O)[C@@H](N)Cc2ccc(O)cc2)[C@@H](C)O)CCCC1)C(=O)N[C@@H](C)C(=O)NC1(C(=O)N[C@@H](CC(=O)O)C(=O)N[C@@H](CCCCN)C(=O)N[C@H](C(=O)N[C@@H](Cc2c[nH]cn2)C(=O)N[C@@H](CCC(N)=O)C(=O)N[C@@H](CCC(N)=O)C(=O)N[C@@H](CC(=O)O)C(=O)N[C@@H](Cc2ccccc2)C(=O)N[C@H](C(=O)N[C@@H](CC(N)=O)C(=O)N[C@@H](Cc2c[nH]c3ccccc23)C(=O)N[C@@H](CC(C)C)C(=O)N[C@@H](CC(C)C)C(=O)N[C@@H](C)C(=O)N[C@@H](CCC(N)=O)C(=O)N[C@@H](CCCCN)C(N)=O)C(C)C)[C@@H](C)CC)CCCC1 [Example 35, (Aib^2, A5c^7, 14)hGIP(1-30)-NH2] (H-Y[Aib]EGTF[Ac5c]SDYSIA[Ac5c]DKIHQQDFVNWLLAQK-NH2; N-terminus assumed) | 39.4 h | > 48 h
13 | CC[C@H](C)[C@H](NC(=O)[C@H](CO)NC(=O)[C@H](Cc1ccc(O)cc1)NC(=O)[C@H](CC(=O)O)NC(=O)[C@H](CO)NC(=O)[C@@H](NC(=O)[C@H](Cc1ccccc1)NC(=O)[C@@H](NC(=O)CNC(=O)[C@@H]1CCCCN1C(=O)[C@H](C)NC(=O)[C@@H](N)Cc1ccc(O)cc1)[C@@H](C)O)[C@@H](C)CC)C(=O)N[C@@H](C)C(=O)NC1(C(=O)N[C@@H](CC(=O)O)C(=O)N[C@@H](CCCCN)C(=O)N[C@H](C(=O)N[C@@H](Cc2c[nH]cn2)C(=O)N[C@@H](CCC(N)=O)C(=O)N[C@@H](CCC(N)=O)C(=O)N[C@@H](CC(=O)O)C(=O)N[C@@H](Cc2ccccc2)C(=O)N[C@H](C(=O)N[C@@H](CC(N)=O)C(=O)N[C@@H](Cc2c[nH]c3ccccc23)C(=O)N[C@@H](CC(C)C)C(=O)N[C@@H](CC(C)C)C(=O)N[C@@H](C)C(=O)N[C@@H](CCC(N)=O)C(=O)N[C@@H](CCCCN)C(=O)NCC(=O)N[C@@H](CCCCN)C(=O)N[C@@H](CCCCN)C(=O)N[C@@H](CC(N)=O)C(=O)N[C@@H](CC(=O)O)C(=O)N[C@@H](Cc2c[nH]c3ccccc23)C(=O)N[C@@H](CCCCN)C(=O)N[C@@H](Cc2c[nH]cn2)C(=O)N[C@@H](CC(N)=O)C(=O)N[C@H](C(=O)N[C@H](C(=O)N[C@@H](CCC(N)=O)C(=O)O)[C@@H](C)O)[C@@H](C)CC)C(C)C)[C@@H](C)CC)CCCCC1 [Example 72, (hPro^3, A6c^14)hGIP(1-42)-OH] | 0.45 h | 10.7 h
14 | Y[Aib]EGTFISDY[Aib]IA[Nle]DKIHQQDFVNWLLAQKGKKNDWKHNITQ-OH [Example 45, (Aib^2, 11, Nle^14)hGIP(1-42)-OH] | 11.6 h | 18.2 h
15 | YAPGTFISDYSI[Aib]MDKIHQQDFVNWLLAQKGKKNDWKHNITQ [Example 75, (Pro^3, Aib^13)hGIP(1-42)-OH] | 1.9 h | 26.1 h
